We go through 15 molecules from US20210315893A1 (Galapagos NV, priority 2017, published 2021).

The structures appear in SMILES notation. Like-named read-outs stand apart in the source and are kept apart here.

Test [1] addresses T1, human GPCR sphingosine 1-phosphate receptor 1 (Homo sapiens, UniProt P21453).
T1 construct: host or cells: CHO
Nature of the test: S1PR1 selectivity Ca2+ flux assay (antagonist readout). Format: cell-based. As to the method:
(§1) 50 μL of Chinese hamster ovary (CHO) cells stably overexpressing human S1PR1 or S1PR5 are seeded in 384 well sterile microplates (7,500 cells/well or 10,000 cells/well respectively) and are incubated overnight at 37° C. under 5% CO2. Cells are subsequently washed twice with 25 μL/well of starvation medium (F-12 Ham's medium containing 0.1% fatty acid free bovine serum albumin (FAF BSA)). After one h starvation at 37° C., 5% CO2, cells are loaded with 25 μL of Fluo 8 dye diluted in Hank's balanced salt solution (HBSS) with 20 mM Hepes complemented with 5 mM of probenecid following the recommendations of the manufacturer (one h at 37° C., 5% CO2). Dilution series of compounds are prepared in HBSS buffer with 20 mM Hepes and 0.1% BSA (FAF). 10 μL of diluted compound is added to the cells using the FDSS/pCELL and intracellular calcium changes are measured immediately by recording fluorescence during 3 min (agonist readout). The ratio of maximal signal over background before compound injection is used to determine compound response.
After an incubation of 15 min at 37° C., following the agonist readout, the plates are transferred to the FDSS/pCELL reader. […] The ratio of maximal signal over background before S1P injection was used to determine the inhibitory effect ofthe compound.
(§2) Raw data obtained in each experiment (ratio of maximal signal over background for calcium mobilization assays) were normalized in percentage of activation (agonist mode) or inhibition (antagonist mode) using positive and negative experiment controls. Each individual plate quality was assessed by evaluation of Z′ factor calculated with raw data using the following equation
(§3) Y=bottom+(top−bottom)/(1+(10^(Log IC50−X)*Hillslope)) where X is the logarithm of the concentration of the compound

Test [2] deals with T2, human GPCR sphingosine 1-phosphate receptor 5 (Homo sapiens, UniProt Q9H228).
T2 construct: host or cells: CHO
T2 sequence (Q9H228 whole entry): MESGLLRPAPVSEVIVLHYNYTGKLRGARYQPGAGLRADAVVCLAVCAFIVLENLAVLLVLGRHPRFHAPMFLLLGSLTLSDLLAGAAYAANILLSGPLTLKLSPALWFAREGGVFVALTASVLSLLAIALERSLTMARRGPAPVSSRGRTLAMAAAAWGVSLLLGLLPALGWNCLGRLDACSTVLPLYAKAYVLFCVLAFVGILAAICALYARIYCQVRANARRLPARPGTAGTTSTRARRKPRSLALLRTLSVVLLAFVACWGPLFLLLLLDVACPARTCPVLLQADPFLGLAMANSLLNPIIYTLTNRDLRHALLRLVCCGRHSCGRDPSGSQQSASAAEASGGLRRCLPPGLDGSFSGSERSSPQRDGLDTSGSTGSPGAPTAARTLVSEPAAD
The test can be described thus: S1PR5 selectivity Ca2+ flux assay (antagonist readout). Format: cell-based. Particulars: CHO cells overexpressing human S1PR5 and Gq, agonist at EC80 (20 nM), read-out: S1P5 EC50 (nM), S1P5 antagonist EC50.
From the text: To evaluate the selectivity of the compounds for S1PR2 over S1PR1 and S1PR5, asimilar assay set upas described above for theS1PR2 calcium flux assays waspeformed: CHO cells stably overexpressing human GPCR sphingosine 1-phosphate receptor 1 and Gq protein (Euroscreen, FAST-0197A) or overexpressing human GPCR sphingosine 1-phosphate receptorS5 and Gq protein were used (Perkin Elmer, ES-593-A). In case of the S1PR5 assay triggering was done with an SPR5 specific agonist instead of with S1P (Hobson et al., 2015).
as §1
After an incubation of 15 min at 37° C., following the agonist readout, the plates are transferred to the FDSS/pCELL reader. Cells are stimulated with 10 μL of EC80 concentration of S1P (6 nM for S1P1 and 20 nM for S1P5) and intracellular calcium changes are measured immediately by recording fluorescence during three min (antagonist readout). The ratio of maximal signal over background before S1P injection was used to determine the inhibitory effect ofthe compound.
as §2, §3
(A change in cytosolic calcium serves as a functional read-out for many receptors and channels.)

The subject of test [3] is HFL-1 cells. The test can be described thus: IL-8 production assay (S1P induced IL-8). The following applies: Homo sapiens, HFL1; S1P (1 μM) induced IL-8 in HFL-1 cells, starvation medium without HSA; read-out: IL8 EC50. Format: cell-based. A digest of the protocol: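 HFL-1 human fetal lung fibroblasts were starved in F12K/1% FBS, then given compound for 1 h (10-point, 1/3 dilution, 30 μM top, 0.3% DMSO final). S1P was added at 1 μM final for 16–24 h at 37 °C, and secreted IL-8 in supernatant quantified by ELISA.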

In test [4] the test system is HFL-1 cells. The test can be described thus: IL8 assay in the presence of Human Serum Albumin. Particulars: HFL1, read-out: HSA IL8 EC50.
For test [5], the target named is T3, human GPCR sphingosine 1-phosphate receptor 2 (Homo sapiens, UniProt O95136).
T3 construct: host or cells: CHO
T3 sequence (O95136 whole entry): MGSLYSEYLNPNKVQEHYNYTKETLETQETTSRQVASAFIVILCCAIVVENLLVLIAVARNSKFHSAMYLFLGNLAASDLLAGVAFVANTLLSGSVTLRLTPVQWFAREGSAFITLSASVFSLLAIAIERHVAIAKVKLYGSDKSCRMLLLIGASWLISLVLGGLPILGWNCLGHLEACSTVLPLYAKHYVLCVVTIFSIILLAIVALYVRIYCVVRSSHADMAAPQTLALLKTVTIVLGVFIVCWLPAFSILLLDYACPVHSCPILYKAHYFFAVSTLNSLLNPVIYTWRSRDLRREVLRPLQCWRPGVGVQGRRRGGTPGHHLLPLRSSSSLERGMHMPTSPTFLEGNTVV
The test can be described thus: S1PR2 antagonist Ca2+ flux assay. The class given is cell-based. Particulars: antagonist mode, CHO-S1PR2 cells, S1P at EC80, Ca2+ fluorescence; read-out: S1P2 EC50 (nM), S1P2 antagonist EC50. A digest of the protocol: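 CHO cells stably expressing human S1PR2, serum-starved 1 h, Fluo8-loaded; compound-evoked Ca2+ fluorescence read 3 min (agonist mode), then after 15 min S1P at EC80 added and read 3 min (antagonist mode). Max/baseline fluorescence ratios normalised to vehicle and S1P EC100 or EC50 controls; EC50 derived.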

For another test, the target named is T4, S1PR2 (Homo sapiens, UniProt O95136).
T4 construct: expressed in transfected cells
T4 sequence (O95136 whole entry): as above
The test can be described thus: S1PR2 binding assay (competition with radioactively labeled S1P, SpA). The following applies: membranes from stable cell line over expressing S1PR2, SpA beads; read-out: S1P2 EC50 (nM), S1PR2 binding EC50. A digest of the protocol: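 Competition with [3H]S1P for membranes from a stable S1PR2-overexpressing cell line, 20 μg/well, captured on PVT-WGA SPA beads, in 20 mM Tris pH 7.5, 10 mM MgCl2, 100 mM NaCl, 0.4% fatty-acid-free BSA, 1 mM Na3VO4. 2 h at room temperature, then centrifugation and scintillation counting.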

[6] abbreviates: antagonist readout, CHO cells overexpressing human S1PR1 and Gq, S1P at EC80 (6 nM), read-out: S1P1 EC50 (nM), S1P1 antagonist EC50.

T1 sequence (P21453 whole entry): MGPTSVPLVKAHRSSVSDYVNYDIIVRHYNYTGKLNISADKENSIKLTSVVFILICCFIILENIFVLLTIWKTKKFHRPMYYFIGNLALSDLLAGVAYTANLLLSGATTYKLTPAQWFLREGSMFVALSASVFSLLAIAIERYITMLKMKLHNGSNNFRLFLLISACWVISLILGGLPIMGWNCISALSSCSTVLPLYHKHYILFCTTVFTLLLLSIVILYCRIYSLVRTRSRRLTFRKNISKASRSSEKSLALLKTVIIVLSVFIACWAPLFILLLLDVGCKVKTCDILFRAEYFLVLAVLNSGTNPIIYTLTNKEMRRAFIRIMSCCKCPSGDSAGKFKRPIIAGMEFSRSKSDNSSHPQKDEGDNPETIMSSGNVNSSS

For `C[C@H](C(=O)O)n1nc(Cn2cc3cc(OCC4CC4)c(Cl)cc3n2)c2ccccc2c1=O` [compound 17, ((2R)-2-[4-[[6-chloro-5-(cyclo-propylmethoxy)-indazol-2-yl]-methyl]-1-oxo-phthalazin-2-yl]-propanoic acid)], the EC50 (in general, the concentration that produces a half-maximal response) in test [1] (setting [6]) turned out to be 8810 nM; in test [2], 19800 nM; in the test on HFL-1 cells [3], 3.02 nM; with HFL-1 cells [4] it was 211 nM.

On to `O=C(O)Cn1nc(Cc2nc3cc(Cl)c(OCC(F)F)cc3[nH]2)c2ccccc2c1=O` [Compound 118, 2-[4-[[5-chloro-6-(2,2-difluoroethoxy)-1H-benzimidazol-2-yl]methyl]-1-oxo-phthalazin-2-yl]acetic acid], for which the EC50 in test [1] (setting [6]) was not below 19800 nM; in test [2] it was 19800 nM; in the test with HFL-1 cells [3], 25.5 nM; in the test with HFL-1 cells [4], 95.2 nM.

Turning to `O=C(O)Cn1nc(Cc2nc3cc(OCC4CC4)c(F)cc3[nH]2)c2ccccc2c1=O` [Compound 124, 2-[4-[[5-(cyclopropylmethoxy)-6-fluoro-1H-benzimidazol-2-yl]methyl]-1-oxo-phthalazin-2-yl]acetic acid], the EC50 in test [1] (setting [6]) amounted to 13200 nM; in test [2], 19800 nM; in the test with HFL-1 cells [3], 66.6 nM; with HFL-1 cells [4], 446 nM.

Regarding `O=C(O)C1(c2nn(Cc3cn4cc(OCC5CC5)c(Cl)cc4n3)c3ccccc3c2=O)CC1` [Compound 96, 1-[1-[[7-chloro-6-(cyclopropylmethoxy)imidazo[1,2-a]pyridin-2-yl]methyl]-4-oxo-cinnolin-3-yl]cyclopropanecarboxylic acid], the EC50 in test [1] (setting [6]) was not below 19800 nM; in test [2], 19800 nM; in the test with HFL-1 cells [3], 30 nM; in the test with HFL-1 cells [4], 425 nM.

For the molecule `CC(C(=O)O)n1nc(Cn2cc3cc(OCC(F)F)c(Cl)cc3n2)c2ccccc2c1=O` (stereo not drawn) [Compound 76], the EC50 in test [5] is 161 nM; in test [1], not below 19800 nM; in test [2], 19800 nM; on S1PR2 it was 317 nM; in the test on HFL-1 cells [4], 3430 nM.

Take `Cc1cccc2c1c(=O)c(CC(=O)O)nn2Cc1cn2cc(OCC3CC3)c(Cl)cc2n1` [Compound 102, 2-[1-[[7-chloro-6-(cyclopropylmethoxy)imidazo[1,2-a]pyridin-2-yl]methyl]-5-methyl-4-oxo-cinnolin-3-yl]acetic acid]: the EC50 was 3.02 nM in test [5]; not below 19800 nM in test [1] (setting [6]); 19800 nM in test [2]; 30 nM on S1PR2; 18 nM in the test on HFL-1 cells [4].

With `C[C@@H](C(=O)O)n1nc(Cn2cc3cc(OCC4CC4)c(Cl)cc3n2)c2ccccc2c1=O` [compound 18, (2S)-2-[4-[[6-chloro-5-(cyclo-propylmethoxy)-indazol-2-yl]-methyl]-1-oxo-phthalazin-2-yl]propanoic acid], the EC50 is not below 19800 nM in test [1] (setting [6]), 19800 nM in test [2], 210 nM in the test with HFL-1 cells [3] and 22500 nM in the test with HFL-1 cells [4].

For `CC(C(=O)O)c1nn(Cc2cn3cc(OCC4CC4)c(Cl)cc3n2)c2ccccc2c1=O` (stereo not drawn) [compound 4, 2-[1-[[7-chloro-6-(cyclopropyl-methoxy)imidazo-[1,2-a]pyridin-2-yl]methyl]-4-oxo-cinnolin-3-yl]propanoic acid], the concentration for a half-maximal effect (EC50) in test [1] (setting [6]) was not below 19800 nM; in test [2], 19800 nM; with HFL-1 cells [3] it was 1.64 nM; in the test with HFL-1 cells [4], 19.2 nM.

For the molecule `CC(C)(C(=O)O)c1nn(Cc2cn3cc(OCC4CC4)c(Cl)cc3n2)c2ccccc2c1=O` [Compound 88, 2-[1-[[7-chloro-6-(cyclopropylmethoxy)imidazo[1,2-a]pyridin-2-yl]methyl]-4-oxo-cinnolin-3-yl]-2-methyl-propanoic acid], the EC50 is not below 19800 nM in test [1] (setting [6]), 19800 nM in test [2], 29.8 nM in the test on HFL-1 cells [3] and 410 nM in the test with HFL-1 cells [4].

Consider `C[C@@H](C(=O)O)c1nn(Cc2cn3cc(OCC4CC4)c(Cl)cc3n2)c2ccccc2c1=O` [compound 20, (2R)-2-[1-[[7-chloro-6-(cyclo-propylmethoxy)-imidazo[1,2-a]pyridin-2-yl]-methyl]-4-oxo-cinnolin-3-yl]-propanoic acid], for which the concentration giving a half-maximal response (EC50) in test [1] (setting [6]) was not below 19800 nM; in test [2], 19800 nM; in the test on HFL-1 cells [3], 134 nM; in the test on HFL-1 cells [4] it was 3320 nM.

Turning to `CCC(C(=O)O)c1nn(Cc2cn3cc(OCC4CC4)c(Cl)cc3n2)c2ccccc2c1=O` (stereo not drawn) [Compound 98, 2-[1-[[7-chloro-6-(cyclopropylmethoxy)imidazo[1,2-a]pyridin-2-yl]methyl]-4-oxo-cinnolin-3-yl]butanoic acid], the EC50 in test [1] (setting [6]) is not below 19800 nM; in test [2], 19800 nM; in the test with HFL-1 cells [3], 5.69 nM; with HFL-1 cells [4] it was 26.9 nM.

As for `N#Cc1cc2nc(Cn3nc(C(=O)O)c(=O)c4ccccc43)[nH]c2cc1OCC1CC1` [Compound 110, 1-[[5-cyano-6-(cyclopropylmethoxy)-1H-benzimidazol-2-yl]methyl]-4-oxo-cinnoline-3-carboxylic acid], the EC50 in test [5] was 2.17 nM; in test [2], 2240 nM; on S1PR2 it was 11.2 nM; with HFL-1 cells [3], 2.37 nM; with HFL-1 cells [4] it was 15.2 nM.

As to `CC(C(=O)O)n1nc(Cc2cn3cc(OCC4CC4)c(Cl)cc3n2)c2ccccc2c1=O` (stereo not drawn) [Compound 83, 2-[4-[[7-chloro-6-(cyclopropylmethoxy)imidazo[1,2-a]pyridin-2-yl]methyl]-1-oxo-phthalazin-2-yl]propanoic acid], the EC50 in test [5] is 12.7 nM; in test [1] it was not below 19800 nM; in test [2], 19800 nM; at S1PR2, 53.2 nM; with HFL-1 cells [4], 125 nM.

As to `O=C(O)Cn1nc(Cn2cc3cc(OCC4CC4)c(Br)cc3n2)c2ccccc2c1=O` [Compound 111, 2-[4-[[6-bromo-5-(cyclopropylmethoxy)indazol-2-yl]methyl]-1-oxo-phthalazin-2-yl]acetic acid], the EC50 in test [5] is 15.2 nM; in test [2], 10000 nM; on S1PR2 it was 49 nM; in the test with HFL-1 cells [3] it was 42.2 nM; with HFL-1 cells [4], 1080 nM.

Consider `CCOc1cc2nc(Cc3nn(CC(=O)O)c(=O)c4c(C)cccc34)[nH]c2cc1Cl` [Compound 77, 2-[4-[(6-chloro-5-ethoxy-1H-benzimidazol-2-yl)methyl]-8-methyl-1-oxo-phthalazin-2-yl]acetic acid], for which the half-maximal effective concentration (EC50) in test [5] was determined as 29.8 nM; in test [2], 6610 nM; at S1PR2 it was 241 nM; with HFL-1 cells [3], 1.63 nM; with HFL-1 cells [4] it was 27.4 nM.
